# Test results published in patent US11339130B1 (Blade Therapeutics, Inc., priority 2016, dated 2022).
# Read-outs that look alike come from different tables or passages of the source.
# Columns and labels:
# Human Calpain 1/NS1 = target: T1, Human Calpain 1/NS1 (Homo sapiens, UniProt P07384); test: Calpain inhibition continuous fluorescence (FRET) assay, Human Calpain 1/NS1; format: biochemical; details: read-out: Human Calpain 1/NS1 IC50
# T1 sequence (P07384 1-714): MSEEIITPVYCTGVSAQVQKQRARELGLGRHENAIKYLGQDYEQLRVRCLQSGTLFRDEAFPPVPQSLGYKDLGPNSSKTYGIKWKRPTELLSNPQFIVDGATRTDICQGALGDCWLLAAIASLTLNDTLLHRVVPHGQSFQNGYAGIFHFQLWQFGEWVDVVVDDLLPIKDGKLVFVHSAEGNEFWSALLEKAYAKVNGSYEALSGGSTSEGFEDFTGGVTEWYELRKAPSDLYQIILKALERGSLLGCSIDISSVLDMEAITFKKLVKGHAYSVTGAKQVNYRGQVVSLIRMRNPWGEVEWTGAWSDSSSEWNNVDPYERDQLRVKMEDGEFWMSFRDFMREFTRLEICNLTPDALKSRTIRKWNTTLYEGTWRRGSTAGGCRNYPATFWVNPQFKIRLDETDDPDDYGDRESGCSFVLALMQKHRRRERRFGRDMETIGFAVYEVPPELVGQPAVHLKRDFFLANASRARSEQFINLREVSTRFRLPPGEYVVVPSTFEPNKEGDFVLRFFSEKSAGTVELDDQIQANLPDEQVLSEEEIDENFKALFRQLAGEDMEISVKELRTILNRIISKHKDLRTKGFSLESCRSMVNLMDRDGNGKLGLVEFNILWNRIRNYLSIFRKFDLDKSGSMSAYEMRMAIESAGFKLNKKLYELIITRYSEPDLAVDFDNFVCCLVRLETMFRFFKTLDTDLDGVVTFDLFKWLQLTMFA
# T1 sequence (P04632 1-268 partner): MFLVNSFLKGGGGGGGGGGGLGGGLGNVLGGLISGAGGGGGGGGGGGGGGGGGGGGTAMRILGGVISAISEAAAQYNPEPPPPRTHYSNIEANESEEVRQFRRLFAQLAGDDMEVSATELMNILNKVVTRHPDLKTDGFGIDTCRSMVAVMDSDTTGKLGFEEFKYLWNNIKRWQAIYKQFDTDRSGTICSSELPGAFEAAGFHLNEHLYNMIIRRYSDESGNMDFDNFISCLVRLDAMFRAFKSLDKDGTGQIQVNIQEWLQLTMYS
# How it was run: (§1)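 Buffer 50 mM Tris pH 7.5/100 mM NaCl/1 mM DTT; enzyme + cpd preinc 25C; start w/ FRET substrate + CaCl2; kinetic 490/520 nm, 10 min; slopes 1-5 min; 4-PL IC50.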
# Human Calpain 2/NS1 = target: T2, Human Calpain 2/NS1 (Homo sapiens, UniProt P17655); test: Calpain inhibition continuous fluorescence (FRET) assay, Human Calpain 2/NS1; format: biochemical; details: read-out: Human Calpain 2/NS1 IC50
# T2 sequence (P17655 1-700): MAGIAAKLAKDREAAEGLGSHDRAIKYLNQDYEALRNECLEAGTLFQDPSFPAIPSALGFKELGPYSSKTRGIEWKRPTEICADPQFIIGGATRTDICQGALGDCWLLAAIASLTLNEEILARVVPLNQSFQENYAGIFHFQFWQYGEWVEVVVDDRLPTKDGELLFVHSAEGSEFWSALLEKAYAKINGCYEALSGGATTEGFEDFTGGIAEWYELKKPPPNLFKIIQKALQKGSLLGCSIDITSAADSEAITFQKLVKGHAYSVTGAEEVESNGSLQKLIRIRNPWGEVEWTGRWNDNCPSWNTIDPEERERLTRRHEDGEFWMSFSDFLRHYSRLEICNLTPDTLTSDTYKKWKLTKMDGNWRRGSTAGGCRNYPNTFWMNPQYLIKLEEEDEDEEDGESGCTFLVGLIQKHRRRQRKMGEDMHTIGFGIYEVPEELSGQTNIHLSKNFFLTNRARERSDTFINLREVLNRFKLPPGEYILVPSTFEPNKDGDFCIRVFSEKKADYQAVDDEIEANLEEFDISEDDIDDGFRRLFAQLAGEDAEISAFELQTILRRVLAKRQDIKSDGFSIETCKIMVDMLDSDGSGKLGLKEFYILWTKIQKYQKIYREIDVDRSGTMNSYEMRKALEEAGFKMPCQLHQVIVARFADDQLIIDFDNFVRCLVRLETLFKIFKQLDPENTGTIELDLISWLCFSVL
# T2 sequence (P04632 1-268 partner): T1 sequence (P04632 1-268 partner)
# How it was run: as §1
# Human Calpain 9/NS1 = target: T3, Human Calpain 9/NS1 (Homo sapiens, UniProt O14815); test: Calpain inhibition continuous fluorescence (FRET) assay, Human Calpain 9/NS1; format: biochemical; details: read-out: Human Calpain 9/NS1 IC50
# T3 sequence (O14815 1-690): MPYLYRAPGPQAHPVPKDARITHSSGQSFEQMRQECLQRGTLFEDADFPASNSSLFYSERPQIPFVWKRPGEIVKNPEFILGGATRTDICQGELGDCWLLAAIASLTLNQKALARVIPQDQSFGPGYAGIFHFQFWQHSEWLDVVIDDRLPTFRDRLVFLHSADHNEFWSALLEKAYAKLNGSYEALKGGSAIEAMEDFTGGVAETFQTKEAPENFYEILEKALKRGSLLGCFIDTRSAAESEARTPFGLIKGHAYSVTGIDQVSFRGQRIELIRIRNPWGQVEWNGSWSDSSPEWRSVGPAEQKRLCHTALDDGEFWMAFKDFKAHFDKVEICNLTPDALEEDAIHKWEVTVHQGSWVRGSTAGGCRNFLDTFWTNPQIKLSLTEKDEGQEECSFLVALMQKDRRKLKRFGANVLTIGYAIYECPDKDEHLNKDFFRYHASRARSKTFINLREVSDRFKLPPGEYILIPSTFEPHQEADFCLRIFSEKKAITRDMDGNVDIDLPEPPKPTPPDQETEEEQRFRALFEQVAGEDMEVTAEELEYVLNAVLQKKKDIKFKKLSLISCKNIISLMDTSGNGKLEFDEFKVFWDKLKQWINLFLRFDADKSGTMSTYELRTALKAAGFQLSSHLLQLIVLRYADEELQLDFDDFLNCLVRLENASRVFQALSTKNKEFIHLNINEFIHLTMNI
# T3 sequence (P04632 1-268 partner): T1 sequence (P04632 1-268 partner)
# How it was run: as §1
# [1] = system: Calpain activity in SH-SY5Y cells (SBDP-150); test: SH-SY5Y Spectrin western blot assay (SBDP-150 breakdown product, A23187-induced); format: cell-based; details: Homo sapiens, SH-SY5Y cells, read-out: SH-SY5Y Spectrin IC50
# [2] = Column D, A23187-induced SBDP-150
# [3] = A23187-induced SBDP-150, western blot
IC50 (Human Calpain 1/NS1; Column A) [µM],IC50 (Human Calpain 2/NS1; Column B) [µM],IC50 (Human Calpain 9/NS1; Column C) [µM],"IC50 [1, 2] [µM]",IC50 (Human Calpain 1/NS1) [µM],IC50 (Human Calpain 2/NS1) [µM],IC50 (Human Calpain 9/NS1) [µM],"IC50 [1, 3] [µM]",Structure (SMILES)
< 3,< 3,< 3,> 25,–,–,–,–,"Cc1cc(C(=O)N[C@@H](Cc2ccccc2)C(=O)C(N)=O)n(-c2nc3ccccc3s2)n1 [Compound 13, (S)—N-(4-amino-3,4-dioxo-1-phenylbutan-2-yl)-1-(benzo[D]thiazol-2-yl)-3-methyl-1H-pyrazole-5-carboxamide]"
< 3,< 3,< 3,10 to 25,–,–,–,–,"Cc1cc(C(=O)N[C@@H](Cc2ccccc2)C(=O)C(N)=O)n(-c2cccc(CNC(=O)c3ccccc3)c2)n1 [Compound 141, (S)—N-(4-amino-3,4-dioxo-1-phenylbutan-2-yl)-1-(3-(benzamidomethyl)phenyl)-3-methyl-1H-pyrazole-5-carboxamide]"
< 3,< 3,< 3,> 25,–,–,–,–,"Cc1cc(C(=O)N[C@@H](Cc2ccccc2)C(=O)C(N)=O)n(-c2ccc(CNC(=O)CCc3ccccc3)cc2)n1 [Compound 155, (S)—N-(4-amino-3,4-dioxo-1-phenylbutan-2-yl)-3-methyl-1-(4-((3-phenylpropanamido)methyl)phenyl)-1H-pyrazole-5-carboxamide]"
< 3,< 3,< 3,> 25,–,–,–,–,"NC(=O)C(=O)[C@H](Cc1ccccc1)NC(=O)c1nccn1-c1ccccc1 [Compound 221, (S)—N-(4-amino-3,4-dioxo-1-phenylbutan-2-yl)-1-phenyl-1H-imidazole-2-carboxamide]"
< 3,< 3,< 3,10 to 25,–,–,–,–,"Cc1cccc2sc(-n3nc(C(=O)N[C@@H](Cc4ccccc4)C(=O)C(N)=O)cc3C)nc12 [Compound 299, (S)—N-(4-amino-3,4-dioxo-1-phenylbutan-2-yl)-5-methyl-1-(4-methylbenzo[d]thiazol-2-yl)-1H-pyrazole-3-carboxamide]"
–,–,–,–,< 3,< 3,< 3,> 25,"Cn1cc(C(=O)N[C@@H](Cc2ccccc2)C(=O)C(=O)NCCNC(=O)OC(C)(C)C)c(-c2ccccc2)n1 [Compound 340, Tert-butyl (S)-(2-(3-(1-methyl-3-phenyl-1H-pyrazole-4-carboxamido)-2-oxo-4-phenylbutanamido)ethyl)carbamate]"
–,–,–,–,< 3,< 3,< 3,10 to 25,"Cc1cc(C(=O)N[C@@H](Cc2ccccc2)C(=O)C(N)=O)n(-c2cccc(CNC(=O)OCc3ccccc3)c2)n1 [Compound 343, Benzyl (S)-(3-(5-((4-amino-3,4-dioxo-1-phenylbutan-2-yl)carbamoyl)-3-methyl-1H-pyrazol-1-yl)benzyl)carbamate]"
–,–,–,–,> 10,> 10,> 10,> 25,"Cc1cc(C(=O)NC(Cc2ccccc2)C(=O)C(N)=O)n(-c2ncccc2C)n1 (centres unmarked) [Compound 345, N-(4-amino-3,4-dioxo-1-phenylbutan-2-yl)-3-methyl-1-(3-methylpyridin-2-yl)-1H-pyrazole-5-carboxamide]"
–,–,–,–,> 10,3 to 10,3 to 10,> 25,"Cc1cccnc1-n1nc(C(=O)NC(Cc2ccccc2)C(=O)C(N)=O)cc1C (centres unmarked) [Compound 346, N-(4-amino-3,4-dioxo-1-phenylbutan-2-yl)-5-methyl-1-(3-methylpyridin-2-yl)-1H-pyrazole-3-carboxamide]"
–,–,–,–,< 3,< 3,< 3,10 to 25,"NC(=O)C(=O)C(Cc1ccccc1)NC(=O)c1nsnc1Cl (centres unmarked) [Compound 364, N-(4-amino-3,4-dioxo-1-phenylbutan-2-yl)-4-chloro-1,2,5-thiadiazole-3-carboxamide]"
–,–,–,–,< 3,< 3,< 3,10 to 25,"O=C(NC1CC1)C(=O)C(Cc1ccccc1)NC(=O)c1nsnc1-c1ccccc1 (centres unmarked) [Compound 462, N-(4-(cyclopropylamino)-3,4-dioxo-1-phenylbutan-2-yl)-4-phenyl-1,2,5-thiadiazole-3-carboxamide]"
